# Biological target: GCN2 (Homo sapiens (Human), UniProt Q9P2K8)
# Experiment: GCN2 Biochemical Assay (TR-FRET, GFP-eIF2S1 substrate phosphorylation)
# Settings: read-out: IC50 (GCN2 Inhibitory Activity)
# In short: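 TR-FRET readout (Ex 340, Em 490/520 nm) after 2–3 h with Tb-labelled phospho-eIF2S1 antibody in stop mix, following a 70 min room-temperature kinase step. Reaction: in-house GCN2, GFP-eIF2S1, ATP, tRNA in Tris pH 7.5 (2× stocks 1.6 nM, 50 nM, 0.2 mM); compounds tested at 10 concentrations, with a phospho-substrate artifact counter-plate.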
# Sequence of GCN2 (Q9P2K8 whole entry): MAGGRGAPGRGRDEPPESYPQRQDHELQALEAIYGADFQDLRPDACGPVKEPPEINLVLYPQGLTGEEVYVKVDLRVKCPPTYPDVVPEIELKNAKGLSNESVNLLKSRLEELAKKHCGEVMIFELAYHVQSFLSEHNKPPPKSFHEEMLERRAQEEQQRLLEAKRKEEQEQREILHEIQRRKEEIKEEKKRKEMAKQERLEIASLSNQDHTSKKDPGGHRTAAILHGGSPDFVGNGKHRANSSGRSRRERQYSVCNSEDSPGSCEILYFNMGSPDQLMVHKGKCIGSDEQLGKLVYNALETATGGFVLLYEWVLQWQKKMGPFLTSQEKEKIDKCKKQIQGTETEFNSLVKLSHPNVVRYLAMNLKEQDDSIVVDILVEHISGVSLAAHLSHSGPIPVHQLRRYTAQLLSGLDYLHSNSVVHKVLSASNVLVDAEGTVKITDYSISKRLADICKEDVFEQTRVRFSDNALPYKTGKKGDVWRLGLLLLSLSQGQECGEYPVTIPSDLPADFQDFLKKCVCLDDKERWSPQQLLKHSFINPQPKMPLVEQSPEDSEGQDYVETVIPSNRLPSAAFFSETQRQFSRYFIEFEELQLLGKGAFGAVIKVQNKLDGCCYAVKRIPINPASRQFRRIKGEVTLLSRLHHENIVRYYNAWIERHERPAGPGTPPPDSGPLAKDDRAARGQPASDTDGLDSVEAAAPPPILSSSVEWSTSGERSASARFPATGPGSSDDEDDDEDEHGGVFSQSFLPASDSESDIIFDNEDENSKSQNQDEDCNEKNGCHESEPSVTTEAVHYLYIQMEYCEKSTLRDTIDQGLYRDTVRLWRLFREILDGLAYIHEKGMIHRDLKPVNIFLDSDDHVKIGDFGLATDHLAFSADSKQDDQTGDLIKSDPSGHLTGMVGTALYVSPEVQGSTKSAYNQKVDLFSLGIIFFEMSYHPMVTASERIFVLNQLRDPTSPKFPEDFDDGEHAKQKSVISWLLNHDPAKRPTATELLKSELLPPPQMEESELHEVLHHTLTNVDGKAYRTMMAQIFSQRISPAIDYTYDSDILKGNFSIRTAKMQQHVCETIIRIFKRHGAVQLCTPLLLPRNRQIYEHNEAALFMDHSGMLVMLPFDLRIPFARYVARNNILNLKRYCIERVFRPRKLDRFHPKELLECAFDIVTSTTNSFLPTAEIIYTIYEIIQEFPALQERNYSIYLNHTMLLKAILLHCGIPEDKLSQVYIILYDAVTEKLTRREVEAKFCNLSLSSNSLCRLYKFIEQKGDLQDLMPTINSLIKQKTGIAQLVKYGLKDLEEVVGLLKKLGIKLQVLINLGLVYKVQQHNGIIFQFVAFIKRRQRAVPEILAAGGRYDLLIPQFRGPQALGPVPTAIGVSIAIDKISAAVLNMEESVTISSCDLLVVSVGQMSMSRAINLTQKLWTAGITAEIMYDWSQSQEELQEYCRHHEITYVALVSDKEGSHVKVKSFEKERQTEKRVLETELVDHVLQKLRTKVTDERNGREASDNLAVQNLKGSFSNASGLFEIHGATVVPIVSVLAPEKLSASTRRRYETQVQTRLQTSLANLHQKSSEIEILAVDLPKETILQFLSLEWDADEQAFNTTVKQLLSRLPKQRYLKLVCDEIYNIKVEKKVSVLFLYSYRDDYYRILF
row,SMILES,IC50 [nM]
1,"CCN(C)c1nc(O[C@H]2CCN(CC(=O)Nc3cccc4c(-c5nc(Nc6cc(C)n(C)n6)ncc5C)c[nH]c34)C2)ncc1F [Example 182, (S)-N-(3-(2-((1,5-dimethyl-1H-pyrazol-3-yl)amino)-5-methylpyrimidin-4-yl)-1H-indol-7-yl)-2-(3-((4-(ethyl(methyl)amino)-5-fluoropyrimidin-2-yl)oxy)pyrrolidin-1-yl)acetamide]",< 10
2,"Cc1cnc(Nc2cc(C)n(C)n2)nc1-c1c[nH]c2c(NC(=O)CN3CC[C@H](Oc4ncc(F)c(N(C)Cc5ccccc5)n4)C3)cccc12 [Example 185, (S)-2-(3-((4-(benzyl(methyl)amino)-5-fluoropyrimidin-2-yl)oxy)pyrrolidin-1-yl)-N-(3-(2-((1,5-dimethyl-1H-pyrazol-3-yl)amino)-5-methylpyrimidin-4-yl)-1H-indol-7-yl)acetamide]",< 10
3,"Cc1cnc(Nc2cc(C)n(C)n2)nc1-c1c[nH]c2c(NC(=O)CN3CC[C@H](Oc4ncc(F)c(N5CCCC5)n4)C3)cccc12 [Example 186, (S)-N-(3-(2-((1,5-dimethyl-1H-pyrazol-3-yl)amino)-5-methylpyrimidin-4-yl)-1H-indol-7-yl)-2-(3-((5-fluoro-4-(pyrrolidin-1-yl)pyrimidin-2-yl)oxy)pyrrolidin-1-yl)acetamide]",< 10
4,"Cc1cnc(Nc2cc(C)n(C)n2)nc1-c1c[nH]c2c(NC(=O)CN3CC[C@H](Oc4ncc(F)c(N5CCCCC5)n4)C3)cccc12 [Example 187, (S)-N-(3-(2-((1,5-dimethyl-1H-pyrazol-3-yl)amino)-5-methylpyrimidin-4-yl)-1H-indol-7-yl)-2-(3-((5-fluoro-4-(piperidin-1-yl)pyrimidin-2-yl)oxy)pyrrolidin-1-yl)acetamide]",< 10
5,"Cc1cnc(Nc2cc(C)n(C)n2)nc1-c1c[nH]c2c(NC(=O)CN3CC[C@H](Oc4ncc(F)c(N5CCOCC5)n4)C3)cccc12 [Example 188, (S)-N-(3-(2-((1,5-dimethyl-1H-pyrazol-3-yl)amino)-5-methylpyrimidin-4-yl)-1H-indol-7-yl)-2-(3-((5-fluoro-4-morpholinopyrimidin-2-yl)oxy)pyrrolidin-1-yl)acetamide]",< 10
6,"COc1nccc(O[C@H]2CCN(CC(=O)Nc3cccc4c(-c5nc(Nc6cc(C)n(C)n6)ncc5C)c[nH]c34)C2)n1 [Example 194, (S)-N-(3-(2-((1,5-dimethyl-1H-pyrazol-3-yl)amino)-5-methylpyrimidin-4-yl)-1H-indol-7-yl)-2-(3-((2-methoxypyrimidin-4-yl)oxy)pyrrolidin-1-yl)acetamide]",< 10
7,"Cc1cnc(Nc2cc(C)n(C)n2)nc1-c1c[nH]c2c(NC(=O)CN3CC[C@H](Oc4ccnc(OCc5ccccc5)n4)C3)cccc12 [Example 195, (S)-2-(3-((2-(benzyloxy)pyrimidin-4-yl)oxy)pyrrolidin-1-yl)-N-(3-(2-((1,5-dimethyl-1H-pyrazol-3-yl)amino)-5-methylpyrimidin-4-yl)-1H-indol-7-yl)acetamide]",10 to 100
8,"CC(=O)Nc1nccc(O[C@H]2CCN(CC(=O)Nc3cccc4c(-c5nc(Nc6cc(C)n(C)n6)ncc5C)c[nH]c34)C2)n1 [Example 196, (S)-2-(3-((2-acetamidopyrimidin-4-yl)oxy)pyrrolidin-1-yl)-N-(3-(2-((1,5-dimethyl-1H-pyrazol-3-yl)amino)-5-methylpyrimidin-4-yl)-1H-indol-7-yl)acetamide]",< 10
9,"CNc1nccc(O[C@H]2CCN(CC(=O)Nc3cccc4c(-c5nc(Nc6cc(C)n(C)n6)ncc5C)c[nH]c34)C2)n1 [Example 197, (S)-N-(3-(2-((1,5-dimethyl-1H-pyrazol-3-yl)amino)-5-methylpyrimidin-4-yl)-1H-indol-7-yl)-2-(3-((2-(methylamino)pyrimidin-4-yl)oxy)pyrrolidin-1-yl)acetamide]",< 10
10,"Cc1cnc(Nc2cc(C)n(C)n2)nc1-c1c[nH]c2c(NC(=O)CN3CC[C@H](Oc4ccnc(NCC(F)(F)F)n4)C3)cccc12 [Example 198, (S)-N-(3-(2-((1,5-dimethyl-1H-pyrazol-3-yl)amino)-5-methylpyrimidin-4-yl)-1H-indol-7-yl)-2-(3-((2-((2,2,2-trifluoroethyl)amino)pyrimidin-4-yl)oxy)pyrrolidin-1-yl)acetamide]",< 10
11,"Cc1cnc(Nc2cc(C)n(C)n2)nc1-c1c[nH]c2c(NC(=O)CN3CC[C@H](Oc4ccnc(NCC(C)(F)F)n4)C3)cccc12 [Example 199, (S)-2-(3-((2-((2,2-difluoropropyl)amino)pyrimidin-4-yl)oxy)pyrrolidin-1-yl)-N-(3-(2-((1,5-dimethyl-1H-pyrazol-3-yl)amino)-5-methylpyrimidin-4-yl)-1H-indol-7-yl)acetamide]",< 10
12,"Cc1cnc(Nc2cc(C)n(C)n2)nc1-c1c[nH]c2c(NC(=O)CN3CC[C@H](Oc4ccnc(NCC(F)F)n4)C3)cccc12 [Example 200, (S)-2-(3-((2-((2,2-difluoroethyl)amino)pyrimidin-4-yl)oxy)pyrrolidin-1-yl)-N-(3-(2-((1,5-dimethyl-1H-pyrazol-3-yl)amino)-5-methylpyrimidin-4-yl)-1H-indol-7-yl)acetamide]",< 10
13,"Cc1cnc(Nc2cc(C)n(C)n2)nc1-c1c[nH]c2c(NC(=O)CN3CC[C@H](Oc4ccnc(NC(C)C(F)(F)F)n4)C3)cccc12 (stereo partly drawn) [Example 201, N-(3-(2-((1,5-dimethyl-1H-pyrazol-3-yl)amino)-5-methylpyrimidin-4-yl)-1H-indol-7-yl)-2-((3S)-3-((2-((1,1,1-trifluoropropan-2-yl)amino)pyrimidin-4-yl)oxy)pyrrolidin-1-yl)acetamide]",10 to 100
14,"Cc1cnc(Nc2cc(C)n(C)n2)nc1-c1c[nH]c2c(NC(=O)CN3CC[C@H](Oc4ccnc(NCCF)n4)C3)cccc12 [Example 202, (S)-N-(3-(2-((1,5-dimethyl-1H-pyrazol-3-yl)amino)-5-methylpyrimidin-4-yl)-1H-indol-7-yl)-2-(3-((2-((2-fluoroethyl)amino)pyrimidin-4-yl)oxy)pyrrolidin-1-yl)acetamide]",< 10
15,"CCNc1nccc(O[C@H]2CCN(CC(=O)Nc3cccc4c(-c5nc(Nc6cc(C)n(C)n6)ncc5C)c[nH]c34)C2)n1 [Example 203, (S)-N-(3-(2-((1,5-dimethyl-1H-pyrazol-3-yl)amino)-5-methylpyrimidin-4-yl)-1H-indol-7-yl)-2-(3-((2-(ethylamino)pyrimidin-4-yl)oxy)pyrrolidin-1-yl)acetamide]",< 10
16,"CCCNc1nccc(O[C@H]2CCN(CC(=O)Nc3cccc4c(-c5nc(Nc6cc(C)n(C)n6)ncc5C)c[nH]c34)C2)n1 [Example 204, (S)-N-(3-(2-((1,5-dimethyl-1H-pyrazol-3-yl)amino)-5-methylpyrimidin-4-yl)-1H-indol-7-yl)-2-(3-((2-(propylamino)pyrimidin-4-yl)oxy)pyrrolidin-1-yl)acetamide]",< 10

# Continued, values first:
row,IC50 [nM],SMILES
1,< 10,"CCN(CC)c1nc(O[C@H]2CCN(CC(=O)Nc3cccc4c(-c5nc(Nc6cc(C)n(C)n6)ncc5C)c[nH]c34)C2)ncc1F [Example 183, (S)-2-(3-((4-(diethylamino)-5-fluoropyrimidin-2-yl)oxy)pyrrolidin-1-yl)-N-(3-(2-((1,5-dimethyl-1H-pyrazol-3-yl)amino)-5-methylpyrimidin-4-yl)-1H-indol-7-yl)acetamide]"
2,10 to 100,"Cc1cnc(Nc2cc(C)n(C)n2)nc1-c1c[nH]c2c(NC(=O)CN3CC[C@H](Oc4ncc(F)c(N(C)c5ccccc5)n4)C3)cccc12 [Example 184, (S)-N-(3-(2-((1,5-dimethyl-1H-pyrazol-3-yl)amino)-5-methylpyrimidin-4-yl)-1H-indol-7-yl)-2-(3-((5-fluoro-4-(methyl(phenyl)amino)pyrimidin-2-yl)oxy)pyrrolidin-1-yl)acetamide]"
3,< 10,"Cc1cnc(Nc2cc(C)n(C)n2)nc1-c1c[nH]c2c(NC(=O)CN3CC[C@H](Oc4ncc(F)c(N5CCSCC5)n4)C3)cccc12 [Example 189, (S)-N-(3-(2-((1,5-dimethyl-1H-pyrazol-3-yl)amino)-5-methylpyrimidin-4-yl)-1H-indol-7-yl)-2-(3-((5-fluoro-4-thiomorpholinopyrimidin-2-yl)oxy)pyrrolidin-1-yl)acetamide]"
4,< 10,"Cc1cnc(Nc2cc(C)n(C)n2)nc1-c1c[nH]c2c(NC(=O)CN3CC[C@H](Oc4ncc(F)c(N5CCN(C)CC5)n4)C3)cccc12 [Example 190, (S)-N-(3-(2-((1,5-dimethyl-1H-pyrazol-3-yl)amino)-5-methylpyrimidin-4-yl)-1H-indol-7-yl)-2-(3-((5-fluoro-4-(4-methylpiperazin-1-yl)pyrimidin-2-yl)oxy)pyrrolidin-1-yl)acetamide]"
5,< 10,"Cc1cnc(O[C@H]2CCN(CC(=O)Nc3cccc4c(-c5nc(Nc6cc(C)n(C)n6)ncc5C)c[nH]c34)C2)nc1NC1CC1 [Example 191, (S)-2-(3-((4-(cyclopropylamino)-5-methylpyrimidin-2-yl)oxy)pyrrolidin-1-yl)-N-(3-(2-((1,5-dimethyl-1H-pyrazol-3-yl)amino)-5-methylpyrimidin-4-yl)-1H-indol-7-yl)acetamide]"
6,< 10,"Cc1cnc(Nc2cc(C)n(C)n2)nc1-c1c[nH]c2c(NC(=O)CN3CC[C@H](Oc4ccnc(N)n4)C3)cccc12 [Example 192, (S)-2-(3-((2-aminopyrimidin-4-yl)oxy)pyrrolidin-1-yl)-N-(3-(2-((1,5-dimethyl-1H-pyrazol-3-yl)amino)-5-methylpyrimidin-4-yl)-1H-indol-7-yl)acetamide]"
7,< 10,"CSc1nccc(O[C@H]2CCN(CC(=O)Nc3cccc4c(-c5nc(Nc6cc(C)n(C)n6)ncc5C)c[nH]c34)C2)n1 [Example 193, (S)-N-(3-(2-((1,5-dimethyl-1H-pyrazol-3-yl)amino)-5-methylpyrimidin-4-yl)-1H-indol-7-yl)-2-(3-((2-(methylthio)pyrimidin-4-yl)oxy)pyrrolidin-1-yl)acetamide]"
